# Results: ChEMBL document CHEMBL1158668, “Novel bioactivities of Curcuma longa constituents” (1998)
# Activity calls are given as the source filed them. The rule behind the calls is not given here.
# Legend:
# [1] = target: T1, DNA topoisomerase 1 (Saccharomyces cerevisiae S288c) (UniProt P04786); experiment: Inhibition of topoisomerase 1 in Saccharomyces cerevisiae JN394 assessed as inhibition of growth at 50 ug/mL after 72 hrs
# T1 sequence (whole entry): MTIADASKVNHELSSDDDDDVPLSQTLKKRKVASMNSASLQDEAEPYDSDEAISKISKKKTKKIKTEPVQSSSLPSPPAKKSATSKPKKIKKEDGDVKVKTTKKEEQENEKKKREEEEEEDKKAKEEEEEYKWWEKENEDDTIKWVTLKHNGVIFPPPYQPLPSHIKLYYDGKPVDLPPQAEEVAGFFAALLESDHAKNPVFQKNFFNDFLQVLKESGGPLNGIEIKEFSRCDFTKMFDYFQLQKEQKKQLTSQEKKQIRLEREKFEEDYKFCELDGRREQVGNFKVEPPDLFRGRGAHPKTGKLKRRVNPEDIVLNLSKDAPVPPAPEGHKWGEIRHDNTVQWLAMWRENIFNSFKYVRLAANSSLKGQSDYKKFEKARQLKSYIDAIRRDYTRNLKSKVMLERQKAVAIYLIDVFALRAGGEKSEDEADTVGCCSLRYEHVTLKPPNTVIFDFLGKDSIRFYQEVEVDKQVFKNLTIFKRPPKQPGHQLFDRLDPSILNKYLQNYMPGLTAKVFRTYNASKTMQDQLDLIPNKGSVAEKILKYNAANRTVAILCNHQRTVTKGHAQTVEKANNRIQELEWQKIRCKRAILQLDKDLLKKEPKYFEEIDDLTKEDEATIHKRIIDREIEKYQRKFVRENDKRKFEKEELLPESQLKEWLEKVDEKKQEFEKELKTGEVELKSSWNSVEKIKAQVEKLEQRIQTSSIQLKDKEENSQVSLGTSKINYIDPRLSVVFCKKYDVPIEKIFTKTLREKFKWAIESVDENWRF
# [2] = target: T1, DNA topoisomerase 1 (Saccharomyces cerevisiae S288c); experiment: Inhibition of topoisomerase 1 in Saccharomyces cerevisiae JN394t-1 assessed as inhibition of growth at 25 ug/mL after 72 hrs
# [3] = target: T2, DNA topoisomerase 2 (Saccharomyces cerevisiae S288c) (UniProt P06786); experiment: Inhibition of topoisomerase 2 in Saccharomyces cerevisiae JN394 assessed as inhibition of growth at 50 ug/mL after 72 hrs
# T2 sequence (whole entry): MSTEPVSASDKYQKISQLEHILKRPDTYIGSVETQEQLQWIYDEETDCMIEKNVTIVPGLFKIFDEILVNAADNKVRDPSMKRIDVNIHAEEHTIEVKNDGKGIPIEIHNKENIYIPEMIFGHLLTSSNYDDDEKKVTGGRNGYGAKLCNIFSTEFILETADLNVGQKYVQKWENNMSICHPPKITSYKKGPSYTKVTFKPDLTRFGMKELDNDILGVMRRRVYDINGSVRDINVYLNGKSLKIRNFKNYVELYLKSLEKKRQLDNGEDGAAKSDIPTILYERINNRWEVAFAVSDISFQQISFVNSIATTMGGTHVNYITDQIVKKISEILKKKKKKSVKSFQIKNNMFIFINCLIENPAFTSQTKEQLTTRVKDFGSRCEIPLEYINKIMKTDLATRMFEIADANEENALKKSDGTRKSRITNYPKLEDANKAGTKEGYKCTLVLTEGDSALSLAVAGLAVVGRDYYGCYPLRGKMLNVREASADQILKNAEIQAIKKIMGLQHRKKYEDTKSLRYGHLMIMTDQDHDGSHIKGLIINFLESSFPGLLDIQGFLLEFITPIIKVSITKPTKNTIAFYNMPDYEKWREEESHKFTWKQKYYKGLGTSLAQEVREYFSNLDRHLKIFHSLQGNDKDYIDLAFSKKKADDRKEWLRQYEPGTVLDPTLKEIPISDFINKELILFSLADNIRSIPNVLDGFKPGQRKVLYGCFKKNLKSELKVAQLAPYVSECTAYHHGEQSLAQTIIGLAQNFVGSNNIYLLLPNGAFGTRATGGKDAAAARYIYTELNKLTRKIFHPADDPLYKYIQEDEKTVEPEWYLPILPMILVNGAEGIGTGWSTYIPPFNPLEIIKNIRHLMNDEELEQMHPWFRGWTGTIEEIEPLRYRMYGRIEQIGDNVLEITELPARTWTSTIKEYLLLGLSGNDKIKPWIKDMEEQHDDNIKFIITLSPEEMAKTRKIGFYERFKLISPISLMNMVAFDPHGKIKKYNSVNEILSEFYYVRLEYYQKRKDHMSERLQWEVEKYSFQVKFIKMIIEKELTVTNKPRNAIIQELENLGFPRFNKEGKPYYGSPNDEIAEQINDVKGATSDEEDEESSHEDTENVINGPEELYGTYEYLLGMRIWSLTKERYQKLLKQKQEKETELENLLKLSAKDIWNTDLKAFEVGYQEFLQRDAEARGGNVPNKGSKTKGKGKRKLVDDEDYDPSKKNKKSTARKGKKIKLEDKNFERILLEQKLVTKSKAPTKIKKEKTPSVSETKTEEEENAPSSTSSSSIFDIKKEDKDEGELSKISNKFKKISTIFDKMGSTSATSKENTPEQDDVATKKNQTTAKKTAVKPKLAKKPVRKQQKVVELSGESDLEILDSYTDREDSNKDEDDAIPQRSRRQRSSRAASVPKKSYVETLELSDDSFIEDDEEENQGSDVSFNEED
# [4] = target: T2, DNA topoisomerase 2 (Saccharomyces cerevisiae S288c); experiment: Inhibition of topoisomerase 2 in Saccharomyces cerevisiae JN394t2-5 assessed as inhibition of growth at 25 ug/mL after 72 hrs
# [5] = target: T2, DNA topoisomerase 2 (Saccharomyces cerevisiae S288c); experiment: Inhibition of topoisomerase 2 in Saccharomyces cerevisiae JN394t2-5 assessed as inhibition of growth at 50 ug/mL after 72 hrs
# [6] = target: T2, DNA topoisomerase 2 (Saccharomyces cerevisiae S288c); experiment: Inhibition of topoisomerase 2 in Saccharomyces cerevisiae JN394t-1 assessed as inhibition of growth at 25 ug/mL after 72 hrs
# [7] = target: T1, DNA topoisomerase 1 (Saccharomyces cerevisiae S288c); experiment: Inhibition of topoisomerase 1 in Saccharomyces cerevisiae JN394 assessed as inhibition of growth at 25 ug/mL after 72 hrs
# [8] = target: T2, DNA topoisomerase 2 (Saccharomyces cerevisiae S288c); experiment: Inhibition of topoisomerase 2 in Saccharomyces cerevisiae JN394t-1 assessed as inhibition of growth at 50 ug/mL after 72 hrs
# [9] = target: T2, DNA topoisomerase 2 (Saccharomyces cerevisiae S288c); experiment: Inhibition of topoisomerase 2 in Saccharomyces cerevisiae JN394 assessed as inhibition of growth at 25 ug/mL after 72 hrs
# [10] = target: T1, DNA topoisomerase 1 (Saccharomyces cerevisiae S288c); experiment: Inhibition of topoisomerase 1 in Saccharomyces cerevisiae JN394t2-5 assessed as inhibition of growth at 50 ug/mL after 72 hrs
# [11] = target: T1, DNA topoisomerase 1 (Saccharomyces cerevisiae S288c); experiment: Inhibition of topoisomerase 1 in Saccharomyces cerevisiae JN394t-1 assessed as inhibition of growth at 50 ug/mL after 72 hrs
# [12] = target: T1, DNA topoisomerase 1 (Saccharomyces cerevisiae S288c); experiment: Inhibition of topoisomerase 1 in Saccharomyces cerevisiae JN394t2-5 assessed as inhibition of growth at 25 ug/mL after 72 hrs
# Candida parapsilosis = experiment: Antimicrobial activity against Candida parapsilosis at 25 ug/mL; type: functional, organism-based
# Candida albicans = experiment: Antimicrobial activity against Candida albicans at 1 ug/mL; type: functional, organism-based
# Pichia kudriavzevii = experiment: Antimicrobial activity against Candida krusei at 25 ug/mL; type: functional, organism-based
# Aedes aegypti [13] = experiment: Mosquitocidal activity against Aedes aegypti fourth instar larvae assessed as mortality at 10 ug/mL after 48 hrs; type: functional
# Aedes aegypti [14] = experiment: Mosquitocidal activity against Aedes aegypti fourth instar larvae assessed as mortality at 50 ug/mL after 18 hrs; type: functional, organism-based
# Aedes aegypti [15] = experiment: Mosquitocidal activity against Aedes aegypti fourth instar larvae; type: functional
SMILES,Activity [1],Activity [3],Activity [5],Activity [8],Activity [10],Activity [11],further results
O=C(/C=C/c1ccc(O)cc1)CC(=O)/C=C/c1ccc(O)cc1,Active,Active,Active,Active,Active,Active,Activity [2]: Active; Activity [4]: Active; Activity [6]: Active; Activity [7]: Active; Activity [9]: Active; Activity [12]: Active
C=C1CC[C@H]2C(C)(C)CCC[C@]2(C)[C@H]1C/C=C(\C=O)CC=O [LABDADIENEDIAL],–,–,–,–,–,–,Activity (Candida parapsilosis): Active; Activity (Candida albicans): Active; Activity (Pichia kudriavzevii): Active; Activity (Aedes aegypti [13]): 100%
COc1cc(/C=C/C(O)=C/C(=O)/C=C/c2ccc(O)cc2)ccc1O,Active,Active,Active,Active,Active,Active,–
CC(C)=CC(=O)CC(C)c1ccc(C)cc1 (centres undefined),–,–,–,–,–,–,Activity (Aedes aegypti [14]): Active; LD100 (Aedes aegypti [15]): 50 µg/mL
